Assays:
rat remnant kidney model [1] = assay: Efficacy in rat remnant kidney model of nephropathy (renal mass reduction); format: in vivo; conditions: for Mortality Rates in Remnant Kidney Model / Mortality compared to the vehicle treated group: in drinking water; for Mortality Rates in Remnant Kidney Model: started 21 days after RMR, n=12/group; for Mortality compared to the vehicle treated group: Compound 1 30 mg/kg/d, losartan 10 mg/kg; for percentage of sclerotic glomeruli compared with vehicle: renal histology at termination of the experiment; for number of ED 1 positive cells per field (monocytes/macrophages in the renal interstitium): renal histology at termination, not statistically significant vs vehicle (61±5)
Description: (§1) The rat remnant kidney model is an animal model of severe progressive renal failure. In this model, a state of severe progressive renal failure is produced by renal mass reduction (RMR) through removal of one kidney and ligation of several branches of the renal artery, resulting in infarction and loss of function of two thirds of the remaining kidney. The procedure creates the conditions of severe hypertension, proteinuria, progressive renal function deterioration, tubulointerstitial damage and glomerulosclerosis (Olson J L, Hostetter T H, Rennke H G, Brenner B M, Venkatachalam M A: “Altered glomerular permselectivity and progressive sclerosis following extreme ablation of renal mass”. Kidney Int 22:112-126, 1982).
Nephropathy is evident as a progressively increasing amount of protein in urine, increases in serum creatinine and increases in arterial pressure. In addition, severe sclerosis of the glomeruli, inflammatory cell infiltration and tubular damage are measurable through histological analysis within 3 months of RMR. These measures form the basis for determining efficacy in the model. Urine protein, serum creatinine and arterial pressure are similarly measured in humans to determine impact of treatments on disease progression.
The aim of this study was to evaluate the effects of Compound 1 compared to an angiotensin receptor blocker (losartan), as well as the combination treatment with Compound 1 and losartan, on proteinuria and renal disease progression in this model. The effectiveness of these agents has been associated with reductions in proteinuria, slowing of the rate of rise in serum creatinine and reduction in glomerular sclerosis and thus slowing of the progression to end stage renal failure.
(§2) Treatment groups (n=12/group) included vehicle; Compound 1 at 30 mg/kg/d; losartan at 10 mg/kg; and losartan at 10 mg/kg+Compound 1 at 30 mg/kg/d. All compounds were administered in drinking water. An additional sham-operated untreated group was also included. Measurements were made at 21 d after RMR but before treatment, and at one and two months of treatment.
At the termination of the experiment kidneys were examined quantitatively for histopathological damage. […] Accumulation of monocytes/macrophages in the renal interstitium was quantified as the number of ED 1 (an antibody to CD68, a monocyte/macrophage specific antigen) positive cells per field.

rat remnant kidney model [2] = assay: Blood pressure in rat remnant kidney model; format: in vivo; conditions: 1- and 2-months of treatment
Description: as §1
as §2, with “Treatments were started 21 days after RMR, when animals already had overt nephropathy. Treatment” for “Treatment”, “treatment. Mortality was less in the Compound 1, losartan and Compound 1+ losartan groups compared to the vehicle treated group (Table 1). […]” for “treatment.”

remnant kidney model = assay: Water intake and diuresis in remnant kidney model; format: in vivo, rat; conditions: mean ± S.E.
Description: as §1, §2

[3] = 2 month of treatment, n = 10, 10 and 11
[4] = Pre-treatment (21 d after RMR), n = 12

COc1cc(C(=O)N2CC[C@]3(C=C(C(=O)O)CC3)Cc3ccccc32)ccc1NC(=O)c1cc(F)ccc1Cl [Compound 1]
Mortality Rates in Remnant Kidney Model (rat remnant kidney model [1]; 1 month of treatment): 12/12 | Mortality Rates in Remnant Kidney Model (rat remnant kidney model [1]; 2 month of treatment): 2/12 | Mortality compared to the vehicle treated group (rat remnant kidney model [1]): less | serum creatinine compared to the vehicle group (rat remnant kidney model [1]; at 1 and 2 months of treatment): reduced | urine protein excretion compared to the vehicle group (rat remnant kidney model [1]; at 1 and 2 months of treatment): reduced | percentage of sclerotic glomeruli compared with vehicle (rat remnant kidney model [1]): tended to decrease | number of ED 1 positive cells per field (monocytes/macrophages in the renal interstitium) (rat remnant kidney model [1]): 45±5 positive cells per field | arterial pressure compared to vehicle (rat remnant kidney model [2]): tended to decrease | diuresis (remnant kidney model; 1 month of treatment, n = 12): 47 ± 4 mL/24 h | water intake (remnant kidney model; 1 month of treatment, n = 12): 70 ± 8 mL/24 h | diuresis (remnant kidney model; [3]): 43 ± 5 mL/24 h | water intake (remnant kidney model; [3]): 72 ± 10 mL/24 h | diuresis (remnant kidney model; [4]): 44 ± 3 mL/24 h | water intake (remnant kidney model; [4]): 65 ± 2 mL/24 h | diuresis (remnant kidney model; basal, n = 12): 19 ± 1 mL/24 h | water intake (remnant kidney model; basal, n = 12): 43 ± 2 mL/24 h

CCCCc1nc(Cl)c(CO)n1Cc1ccc(-c2ccccc2-c2nn[nH]n2)cc1 [losartan]
Mortality Rates in Remnant Kidney Model (rat remnant kidney model [1]; 1 month of treatment): 12/12 | Mortality Rates in Remnant Kidney Model (rat remnant kidney model [1]; 2 month of treatment): 2/12 | Mortality compared to the vehicle treated group (rat remnant kidney model [1]): less | serum creatinine compared to the vehicle group (rat remnant kidney model [1]; at 1 and 2 months of treatment): reduced | statistical significance of the effect on urine protein excretion (rat remnant kidney model [1]; at 1 and 2 months of treatment): not statistically significant | urine protein excretion compared to the vehicle group (rat remnant kidney model [1]; at 1 and 2 months of treatment): reduced | percentage of sclerotic glomeruli compared with vehicle (rat remnant kidney model [1]): significant reduction | number of ED 1 positive cells per field (monocytes/macrophages in the renal interstitium) (rat remnant kidney model [1]): 38±6 positive cells per field | arterial pressure compared to vehicle (rat remnant kidney model [2]): statistically significant decrease | diuresis (remnant kidney model; 1 month of treatment, n = 12): 45 ± 3 mL/24 h | water intake (remnant kidney model; 1 month of treatment, n = 12): 77 ± 4 mL/24 h | diuresis (remnant kidney model; [3]): 45 ± 4 mL/24 h | water intake (remnant kidney model; [3]): 76 ± 5 mL/24 h | diuresis (remnant kidney model; [4]): 45 ± 3 mL/24 h | water intake (remnant kidney model; [4]): 68 ± 4 mL/24 h | diuresis (remnant kidney model; basal, n = 12): 20 ± 1 mL/24 h | water intake (remnant kidney model; basal, n = 12): 46 ± 2 mL/24 h

Reference: patent US20100093701A1, “COMBINATION THERAPY COMPRISING ANGIOTENSIN RECEPTOR BLOCKERS AND VASOPRESSIN RECEPTOR ANTAGONISTS” (priority 2008, published 2010)
